Test results: patent publication US20090149436A1, “CASPASE INHIBITOR” (Astellas Pharma Inc., priority 2004, published 2009)
Like-named read-outs stand apart in the source and are kept apart here.

Legend:
Format in all cases: biochemical
[1] = target: T1, human recombinant caspase 3 (Homo sapiens, UniProt P42574); test: Assay of inhibitory activity against human recombinant caspase 3 (fluorogenic substrate Ac-DEVD-MCA); conditions: for specificity of the enzyme inhibitory activity (in words): caspase 3 versus cathepsins and trypsin
T1 construct: purchased CALBIOCHEM 235417
T1 sequence (P42574 29-175 limits assumed): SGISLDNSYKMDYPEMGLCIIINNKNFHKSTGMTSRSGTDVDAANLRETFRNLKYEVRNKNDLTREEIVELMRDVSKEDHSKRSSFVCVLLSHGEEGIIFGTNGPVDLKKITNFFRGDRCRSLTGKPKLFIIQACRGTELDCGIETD
T1 sequence (P42574 176-277 limits assumed): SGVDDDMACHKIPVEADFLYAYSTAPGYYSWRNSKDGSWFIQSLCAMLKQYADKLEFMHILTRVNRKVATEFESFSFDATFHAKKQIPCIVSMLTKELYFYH
Procedure: A reaction buffer containing 10% sucrose, 0.1% CHAPS, 2 mM dithiothreitol in 25 mM HEPES (pH 7.5) is prepared. […] Thereto is added 25 μl of human recombinant caspase 3 (CALBIOCHEM catalog No. 235417), 500 U/ml, to start the reaction. After incubation at room temperature for 2 hr. the reaction quench buffer (0.1 M monochloroacetic acids 0.03 M sodium acetate, 0.15 M acetic acid (pH 4.3)) is added by 100 μl per well. The fluorescence of 7-amino-4-methylcoumarin ([…]) released by the enzyme reaction is measured using a fluorophotometer (Ex. 355 nm, Em. 460 nm).
The compounds of the above-mentioned 1. were examined for the activity inhibitory action on human recombinant caspase 3.

cathepsin L = cathepsin L (Homo sapiens, UniProt P07711); test: Enzyme specificity assay, cathepsin L (substrate Z-Phe-Arg-MNA); conditions: FIG. 2; phosphate buffer pH 5.5
Chain of cathepsin L (P07711 114-333, species assumed): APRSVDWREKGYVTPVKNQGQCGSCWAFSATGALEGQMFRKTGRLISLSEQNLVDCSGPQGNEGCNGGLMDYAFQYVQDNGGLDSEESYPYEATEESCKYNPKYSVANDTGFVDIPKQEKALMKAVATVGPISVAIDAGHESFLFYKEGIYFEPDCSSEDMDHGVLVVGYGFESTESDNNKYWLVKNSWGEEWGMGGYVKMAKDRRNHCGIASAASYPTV
Procedure: (§1) The above-mentioned compound was assayed for the inhibitory activity using […], cathepsin L and trypsin as enzymes other than caspase 3 and by an assay method similar to the above-mentioned Example 1 using phosphate buffer, pH 5.5 (100 mM NaCl, 5-mM DTT, 4 mM EDTA) as a buffer, Z-Arg-Arg-MNA as a substrate for […], Z-Phe-Arg-MNA as a substrate for cathepsin L, and Boc-Phe-Ser-Arg-MCA as a substrate for trypsin.

cathepsin B = cathepsin B (Homo sapiens, UniProt P07858); test: Enzyme specificity assay, cathepsin B (substrate Z-Arg-Arg-MNA); conditions: FIG. 2; phosphate buffer pH 5.5
Procedure: as §1

trypsin = target: T2, trypsin (Bos taurus, UniProt P00760); test: Enzyme specificity assay, trypsin (substrate Boc-Phe-Ser-Arg-MCA); conditions: FIG. 2; phosphate buffer pH 5.5
T2 construct: gene PRSS1
T2 sequence (P00760 24-246): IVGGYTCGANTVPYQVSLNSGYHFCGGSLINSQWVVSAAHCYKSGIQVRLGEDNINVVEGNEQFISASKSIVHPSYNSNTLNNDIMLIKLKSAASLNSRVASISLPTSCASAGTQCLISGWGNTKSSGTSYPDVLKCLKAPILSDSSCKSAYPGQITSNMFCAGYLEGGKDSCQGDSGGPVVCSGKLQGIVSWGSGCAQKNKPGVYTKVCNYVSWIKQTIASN
Procedure: as §1

[2] = FIG. 1 upper panel, read-out: IC50, inhibitory activity against human recombinant caspase 3
[3] = FIG. 1 lower panel, read-out: IC50, inhibitory activity against human recombinant caspase 3

Q: With `C=CC1=C(C)c2cc3[n-]c(cc4nc(cc5[n-]c(cc1n2)c(C)c5CCC(=O)[O-])C(CCC(=O)[O-])=C4C)c(C)c3C=C.[Co+2].[H+].[H+]` [cobalt protoporphyrin] as the compound, how does the IC50 [1, 2] read?
A: Its IC50 is 13.1 nM.

Q: cyanocobalamin [reference compound] was tested. Which IC50 [1, 3] did it give?
A: Its IC50 is 1760 nM.

Q: And the IC50 [1, 2]?
A: Its IC50 is 2100 nM.

Q: With cyanoimidazolylcobamide as the compound, how does the IC50 [1, 3] read?
A: Its IC50 is 91.2 nM.

Q: Which results are given for `C/C1=C2/[N-]C([C@H](CC(N)=O)[C@@]2(C)CCC(=O)NCC(C)O)[C@]2(C)N=C(/C(C)=C3N=C(/C=C4N=C1[C@@H](CCC(N)=O)C\4(C)C)[C@@H](CCC(N)=O)[C@]\3(C)CC(N)=O)[C@@H](CCC(N)=O)[C@]2(C)CC(N)=O.[C-]#N.[C-]#N.[Co]` (some centres unmarked) [dicyanocobinamide]?
A: caspase 3 inhibitory activity (in words) ([1]; FIG. 1, compared with DEVD, standard product): far stronger than the inhibitory activity of DEVD; IC50 [1, 3]: 0.142 nM; IC50 [1, 2]: 0.28 nM; specificity of the enzyme inhibitory activity (in words) ([1]; FIG. 2): strongest inhibitory activity against caspase 3; IC50 ([1]; FIG. 2, read-out: IC50, caspase (Enzyme Specificity)): 0.28 nM; Inhibitory mode against human recombinant caspase 3 (Lineweaver-Burk plot) ([1]; FIG. 3, different substrate concentrations (2, 4, 6 and 8 nM)): competitively inhibits the substrate for caspase 3; IC50 (cathepsin L): 6.12 nM; IC50 (cathepsin B): 102 nM; IC50 (trypsin): > 5000 nM

Q: How did the “specificity of the enzyme inhibitory activity (in words)” value ([1]; FIG. 2) turn out when `CC(=O)N[C@@H](CC(=O)O)C(=O)N[C@@H](CCC(=O)O)C(=O)N[C@H](C(=O)N[C@H](C=O)CC(=O)O)C(C)C` [DEVD, acetyl-L-aspartyl-L-glutamyl-L-valyl-L-aspart-1-al, reference compound] was run?
A: Its value is “strongest inhibitory activity against caspase 3”.

Q: And the IC50 (cathepsin L)?
A: Its IC50 is 17400 nM.

Q: What about the IC50 (cathepsin B) of the same compound?
A: The IC50 was 672 nM.

Q: And the IC50 (trypsin)?
A: The IC50 was > 100000 nM.
